Patent publication US9493479B2 (Merck Sharp & Dohme Corp., priority 2013, dated 2016)
Structures can show the parent of a compound that is named as a salt.

What was measured:
HIV-1 (NL4-3 strain) = experiment: ViKinG (Viral Kinetics GFP Reporter) assay for inhibition of HIV replication; type: cell-based; details: MT4-GFP cells infected with HIV-1 NL4-3, RPMI + 10% or 50% NHS (not given), infected cells at 48 h / 24 h
Text: The ViKinG (Viral Kinetics GFP Reporter) assay is an in vitro kinetic assay that employs the MT4-gag-GFP reporter cell line (Wang et al., “Assessment of the susceptibility of mutant HIV-1 to antiviral agents.” J Virological Methods 165:230-37 (2010)) to quantify the number of new cells infected in each round of replication. The purpose of the ViKinG assay is to identify agents that inhibit HIV progression. Briefly, HIV infection results in tat transactivation of the stably expressed HIV LTR promoter to drive gagGFP expression. Thus, an increase in the number of GFP-MT4 cells results following HIV infection.
MT4-GFP cells (250,000 cells/m1) were bulk-infected with HIV-1 (NL4-3 strain) at low multiplicity of infection (MOT) in RPMI+10% FBS for 24 hours. Cells were then washed once in RPMI+10% FBS and resuspended RPMI+10% or 50% normal human serum (NHS). Test compounds were serial-diluted in DMSO on an ECHO® liquid handling platform (Labcyte Corp., Sunnyvale, Calif.), along with a triple drug control (integrase, protease and NNRTI compounds). The infected MT4-GFP cells were added to a 384-well poly-D-lysine coated black plate with clear bottom in which the diluted test compounds were placed. The cells were seeded at 8,000 cells per well and the final DMSO concentration was 0.4%. The infected cells (Green GFP cells) were quantified at both 24 and 48 hours post incubation using Acumen® eX3 (TTP Labtech Ltd., Hertfordshire, United Kingdom). Viral reproductive ratio (R0) was determined using the number of infected cells at 48 hours divided by the number of infected cells at 24 hours. Percent viral growth inhibition was calculated by [1−(R−Rtripledrug)/(RDMSO−Rtripledrug)]*100. Compound potency IP or IC50 was determined by a 4-parameter dose response curve analysis.

WT-Integrase = biological target: T1, WT-Integrase (Human immunodeficiency virus type 1 group M subtype B, UniProt P04585); experiment: InSTANT integrase DNA strand transfer functional assay; type: biochemical, HIV; details: SPA strand transfer, 15 minutes at 37° C.
T1 construct: assembled PVT SPA beads with WT-Integrase and boitinylated DNA
Method: InSTANT is an integrase DNA strand transfer functional assay used to determine potency of InSTIs, which was carried out as described below. 8 μl of SPA buffer (27.8 mM Hepes, 27.8 mM MgCl2, 111.1 μg/mL BSA, 5.56 mM βME, and 57.1 mM NaCl) containing 5 nM 3H-labeled target DNA (prepared separately) and 10 μl of assembled PVT SPA beads with WT-Integrase and boitinylated DNA (prepared separately) were added to the assay plate which contained 0.4 μl of test compound(s) or positive or negative control compound(s) per well. The assay plate was shaken for 1 minute on HT-91002 1.0 MM shaker and then was sealed and incubated for 15 minutes at 37° C. The assay reaction was quenched by adding 4 μl of 1.25 M EDTA to each well of the assay plate with mixing. After incubating the plate at room temperature for 1 hour, the quenched plate was spun at 200 g for 1 minute and read on TopCount (1 minute per well). Percent inhibition was calculated by [1−(Sample−Min)/(Max−Min)]*100. Compound potency IP or IC50 was determined by a 4-parameter dose response curve analysis.

[1] = Human immunodeficiency virus 1, NL43

O=C1c2c(O)c(=O)c3c(n2CCN1Cc1ccc(F)c(Cl)c1)COC31CCCC1O (stereo not drawn) [Compound 14, 7′-(3-chloro-4-fluorobenzyl)-2,5′-dihydroxy-8′,9′-dihydrospiro[cyclopentane-1,3′-furo[3′,4′:5,6]pyrido[1,2-a]pyrazine]-4′,6′(1′H,7′H)-dione]
IC50 (HIV-1 (NL4-3 strain); [1]): 144 nM
IC50 (WT-Integrase): 12 nM

Cc1cn(C)c(=O)c2c1c(=O)c(O)c1n2CCN(Cc2ccc(F)c(Cl)c2)C1=O [Compound 22, 8-(3-chloro-4-fluorobenzyl)-6-hydroxy-2,4-dimethyl-9,10-dihydro-1H-pyrazino[1,2-a][1,7]naphthyridine-1,5,7(2H,8H)-trione]
IC50 (HIV-1 (NL4-3 strain); [1]): 456 nM
IC50 (WT-Integrase): 1 nM

CC1CCN(C(=O)CN(C)C)Cc2c1c(=O)c(O)c1n2CCN(Cc2ccc(F)c(Cl)c2)C1=O (stereo not drawn) [Compound 30]
IC50 (HIV-1 (NL4-3 strain); [1]): 3250 nM

CC(C)c1c(CN)n2c(c(O)c1=O)C(=O)N(Cc1ccc(F)c(Cl)c1)CC2 [Compound 32, 6-(aminomethyl)-2-(3-chloro-4-fluorobenzyl)-9-hydroxy-7-isopropyl-3,4-dihydro-1H-pyrido[1,2-a]pyrazine-1,8(2H)-dione trifluoroacetate salt]
IC50 (HIV-1 (NL4-3 strain); [1]): 151 nM
IC50 (WT-Integrase): 14 nM

CC(C)c1c(C(=O)N(C)C)n2c(c(O)c1=O)C(=O)N(Cc1ccc(F)c(Cl)c1)CC2 [Compound 19, 2-(3-chloro-4-fluorobenzyl)-9-hydroxy-7-isopropyl-N,N-dimethyl-1,8-dioxo-2,3,4,8-tetrahydro-1H-pyrido[1,2-a]pyrazine-6-carboxamide]
IC50 (HIV-1 (NL4-3 strain); [1]): 82 nM
IC50 (WT-Integrase): 10 nM

C=C1COCc2c1c(=O)c(O)c1n2CCN(Cc2ccc(F)c(Cl)c2)C1=O [Compound 11, 8-(3-chloro-4-fluorobenzyl)-6-hydroxy-4-methylene-3,4,9,10-tetrahydropyrano[4′,3′:5,6]pyrido[1,2-a]pyrazine-5,7(1H,8H)-dione]
IC50 (HIV-1 (NL4-3 strain); [1]): 298 nM

C=C1CCN(C(=O)CN(C)C)Cc2c1c(=O)c(O)c1n2CCN(Cc2ccc(F)c(Cl)c2)C1=O [Compound 29]
IC50 (HIV-1 (NL4-3 strain); [1]): > 4200 nM

CCC1COCc2c1c(=O)c(O)c1n2CCN(Cc2ccc(F)cc2)C1=O (stereo not drawn) [Compound 6]
IC50 (HIV-1 (NL4-3 strain); [1]): 492 nM
IC50 (WT-Integrase): 21 nM

O=C1c2c(O)c(=O)c3c(n2CCN1Cc1ccc(F)c(Cl)c1)COCCC3 [Compound 1, 9-(3-chloro-4-fluorobenzyl)-7-hydroxy-4,5,10,11-tetrahydro-1H-oxepino[4′,3′:5,6]pyrido[1,2-a]pyrazine-6,8(3H,9H)-dione]
IC50 (HIV-1 (NL4-3 strain); [1]): 347 nM
IC50 (WT-Integrase): 58 nM

O=C1c2c(O)c(=O)c3c(n2CCN1Cc1ccc(F)c(Cl)c1)COC31C=CCC1 (stereo not drawn) [Compound 12, 7′-(3-chloro-4-fluorobenzyl)-5′-hydroxy-8′,9′-dihydrospiro[cyclopent[2]ene-1,3′-furo[3′,4′:5,6]pyrido[1,2-a]pyrazine]-4′,6′(1′H,7′H)-dione]
IC50 (HIV-1 (NL4-3 strain)): 1020 nM

CC1=CCOCc2c1c(=O)c(O)c1n2CCN(Cc2ccc(F)c(Cl)c2)C1=O [Compound 4, 9-(3-chloro-4-fluorobenzyl)-7-hydroxy-5-methyl-10,11-dihydro-1H-oxepino[4′,3′:5,6]pyrido[1,2-a]pyrazine-6,8(3H,9H)-dione]
IC50 (HIV-1 (NL4-3 strain); [1]): 91 nM
IC50 (WT-Integrase): 18 nM

CC(C)c1c(C(=O)N(C)C)n2c(c(O)c1=O)C(=O)N(Cc1ccc(F)cc1)CC2 [Compound 20, 2-(4-fluorobenzyl)-9-hydroxy-7-isopropyl-N,N-dimethyl-1,8-dioxo-2,3,4,8-tetrahydro-1H-pyrido[1,2-a]pyrazine-6-carboxamide]
IC50 (HIV-1 (NL4-3 strain); [1]): 286 nM
IC50 (WT-Integrase): 20 nM

C=C1CCN(C(=O)C(=O)N(C)C)Cc2c1c(=O)c(O)c1n2CCN(Cc2ccc(F)c(Cl)c2)C1=O [Compound 17, 2-(9-(3-chloro-4-fluorobenzyl)-7-hydroxy-5-methylene-6,8-dioxo-4,5,8,9,10,11-hexahydropyrazino[1′,2′:1,6]pyrido[2,3-c]azepin-2(1H,3H,6H)-yl)-N,N-dimethyl-2-oxoacetamide]
IC50 (HIV-1 (NL4-3 strain); [1]): > 4200 nM

CC1COCc2c1c(=O)c(O)c1n2CCN(Cc2ccc(F)c(Cl)c2)C1=O (stereo not drawn) [Compound 25]
IC50 (HIV-1 (NL4-3 strain); [1]): 351 nM
IC50 (WT-Integrase): 21 nM

O=C1c2c(O)c(=O)c3c(n2CCN1Cc1ccc(F)cc1)COCCCC3 [Compound 9, 10-(4-fluorobenzyl)-8-hydroxy-3,4,5,6,11,12-hexahydrooxocino[4,3′:5,6]pyrido[1,2-a]pyrazine-7, 9(1H, 1 OH)-dione]
IC50 (HIV-1 (NL4-3 strain)): 961 nM

C=C(C)C1COCc2c1c(=O)c(O)c1n2CCN(Cc2ccc(F)c(Cl)c2)C1=O (stereo not drawn) [Compound 26]
IC50 (HIV-1 (NL4-3 strain); [1]): 272 nM

O=C1c2c(O)c(=O)c3c(n2CCN1Cc1ccc(F)c(Cl)c1)COCC1CC31 (stereo not drawn) [Compound 3, 2-(3-chloro-4-fluorobenzyl)-11-hydroxy-3,4,8,8a,9,9a-hexahydrocyclopropa[5′,6]oxepino[4′,3′:5,6]pyrido[1,2-a]pyrazine-1,10(2H,6H)-dione]
IC50 (HIV-1 (NL4-3 strain); [1]): 241 nM

CC1CC12COCc1c2c(=O)c(O)c2n1CCN(Cc1ccc(F)c(Cl)c1)C2=O (stereo not drawn) [Compound 8, 8′-(3-chloro-4-fluorobenzyl)-6′-hydroxy-2-methyl-9′,10′-dihydro-1′H-spiro[cyclopropane-1,4′-pyrano[4′,3′:5,6]pyrido[1,2-a]pyrazine]-5′,7′(3′H,8′H)-dione]
IC50 (HIV-1 (NL4-3 strain); [1]): 507 nM
IC50 (WT-Integrase): 28 nM

CC(C)c1c(CNC(=O)c2ccon2)n2c(c(O)c1=O)C(=O)N(Cc1ccc(F)c(Cl)c1)CC2 [Compound 10, N-((2-(3-chloro-4-fluorobenzyl)-9-hydroxy-7-isopropyl-1,8-dioxo-2,3,4,8-tetrahydro-1H-pyrido[1,2-a]pyrazin-6-yl)methyl)isoxazole-3-carboxamide]
IC50 (HIV-1 (NL4-3 strain); [1]): 406 nM

C/C=C1\COCc2c1c(=O)c(O)c1n2CCN(Cc2ccc(F)c(Cl)c2)C1=O [Compound 5, (Z)-8-(3-chloro-4-fluorobenzyl)-4-ethylidene-6-hydroxy-3,4,9,10-tetrahydropyrano[4′,3′:5,6]pyrido[1,2-a]pyrazine-5,7(1H,8H)-dione]
IC50 (HIV-1 (NL4-3 strain); [1]): 183 nM

O=C1c2c(O)c(=O)c3c(n2CCN1Cc1ccc(F)c(Cl)c1)COC31C=CCCC1 (stereo not drawn) [Compound 15, 7′-(3-chloro-4-fluorobenzyl)-5′-hydroxy-8′,9′-dihydrospiro[cyclohex[2]ene-1,3′-furo[3′,4′:5,6]pyrido[1,2-a]pyrazine]-4′,6′(1′H,7′H)-dione]
IC50 (HIV-1 (NL4-3 strain); [1]): 401 nM

CC(C)C1COCc2c1c(=O)c(O)c1n2CCN(Cc2ccc(F)cc2)C1=O (stereo not drawn) [Compound 27]
IC50 (HIV-1 (NL4-3 strain); [1]): 672 nM

CN1C/C=C\Cc2c(n3c(c(O)c2=O)C(=O)N(Cc2ccc(F)c(Cl)c2)CC3)C1=O [Compound 23, (Z)-10-(3-chloro-4-fluorobenzyl)-8-hydroxy-2-methyl-2,3,11,12-tetrahydro-1H-pyrazino[1′,2′:1,6]pyrido[2,3-c]azocine-1,7,9(6H,10H)-trione]
IC50 (HIV-1 (NL4-3 strain); [1]): 273 nM

C=C1CCOCc2c1c(=O)c(O)c1n2CCN(Cc2ccc(F)c(Cl)c2)C1=O [Compound 28]
IC50 (HIV-1 (NL4-3 strain); [1]): 503 nM

CCc1cn(C)c(=O)c2c1c(=O)c(O)c1n2CCN(Cc2ccc(F)c(Cl)c2)C1=O [Compound 24, 8-(3-chloro-4-fluorobenzyl)-4-ethyl-6-hydroxy-2-methyl-9,10-dihydro-1H-pyrazino[1,2-a][1,7]naphthyridine-1,5,7(2H,8H)-trione]
IC50 (HIV-1 (NL4-3 strain); [1]): 1120 nM

CC1CCNCc2c1c(=O)c(O)c1n2CCN(Cc2ccc(F)c(Cl)c2)C1=O (stereo not drawn) [Compound 16, 9-(3-chloro-4-fluorobenzyl)-7-hydroxy-5-methyl-2,3,4,5,10,11-hexahydropyrazino[1′,2′:1,6]pyrido[2,3-c]azepine-6,8(1H,9H)-dione trifluoroacetate salt]
IC50 (HIV-1 (NL4-3 strain); [1]): 487 nM
